Measured values published in US12102689B2, “Anti-CD22 antibody-maytansine conjugates and methods of use thereof” (R.P. Scherer Technologies, LLC, priority 2015, dated 2024).

Experiments:
Type in all cases: cell-based
[1] = test system: Ramos cells; assay: In vitro cytotoxicity (Cell Titer-Glo, 5 d); settings: Homo sapiens, 120 h
Experimental: (§1) The CD22-positive B-cell lymphoma cell lines, Ramos and WSU-DLCL2, were obtained from the ATCC and DSMZ cell banks, respectively. The cells were maintained in RPMI-1640 medium (Cellgro, Manassas, VA) supplemented with 10% fetal bovine serum (Invitrogen, Grand Island, NY) and Glutamax (Invitrogen). 24 h prior to plating, cells were passaged to ensure log-phase growth. On the day of plating, 5000 cells/well were seeded onto 96-well plates in 90 μL normal growth medium supplemented with 10 IU penicillin and 10 μg/mL streptomycin (Cellgro). Cells were treated at various concentrations with 10 μL of diluted analytes, and the plates were incubated at 37° C. in an atmosphere of 5% CO2. After 5 d, 100 μL/well of Cell Titer-Glo reagent (Promega, Madison, WI) was added, and luminescence was measured using a Molecular Devices SpectraMax M5 plate reader. GraphPad Prism software was used for data analysis.

[2] = test system: WSU-DLCL2 cells; assay: In vitro cytotoxicity (Cell Titer-Glo, 5 d); settings: Homo sapiens, WSUDLCL2, 120 h
Experimental: as §1

[3] = test system: MDR1+ Ramos cells; assay: In vitro cytotoxicity assay on MDR1-expressing cells; settings: MDR1+ Ramos vs wild-type
Experimental: (§2) MDR1 (ABCB1) cDNA was obtained from Sino Biological and cloned into a pEF plasmid with a hygromycin selection marker. An AMAXA Nucleofector™ instrument was used to electroporate Ramos (ATCC CRL-1923) and WSU-DLCL2 (DSMZ ACC 575) cells according to the manufacturer's instructions. After selection with hygromycin (Invitrogen 10687010), the pools were enriched with paclitaxel treatment (25 nM for up to 10 days) to further select cells with functional MDR1. The resulting cells were maintained under hygromycin selection in RPMI (Gibco 21870-092) supplemented with 10% fetal bovine serum (FBS) and 1× GlutaMax (Gibco 35050-079).
(§3) Cell lines were plated in 96-well plates (Costar 3610) at a density of 5×10^4 cells/well in 100 μL of growth media and allowed to rest for 5 h. Serial dilution of test samples was performed in RPMI at 6× the final concentration and 20 μL was added to the cells. After incubation at 37° C. with 5% CO2 for 5 days, viability was measured using a Promega CellTiter 96® AQueous One Solution Cell Proliferation Assay (G3581) according to the manufacturer's instructions. GI50 curves were calculated in GraphPad Prism using the ADC's drug-to-antibody ratio (DAR) value to normalize the dose to the payload concentration.

[4] = test system: MDR1+ WSU-DLCL2 cells; assay: as above
Experimental: as §2, §3

COc1cc2cc(c1Cl)N(C)C(=O)C[C@H](OC(=O)[C@H](C)N(C)C(C)=O)[C@]1(C)O[C@H]1[C@H](C)[C@@H]1C[C@@](O)(NC(=O)O1)[C@H](OC)/C=C/C=C(\C)C2 [free maytansine, maytansine] was tested, and the IC50 [1] was 0.04 nM, the IC50 [2] was 0.086 nM and the “fold less efficacious in MDR1-expressing cells” value [3] was ~10 fold. The “potency on cotreatment with cyclosporin (MDR1 inhibitor)” value ([4]; MDR1+ WSU-DLCL2 cells plus cyclosporin) was “restored the original potency” and the “fold less efficacious in MDR1-expressing cells” value ([4]; MDR1+ WSU-DLCL2 vs wild-type) was ~10 fold.
